The source made the active and inactive calls. No cut-off for these calls is given here.
How the values were obtained:
SK-N-MC = assay: Cytotoxicity against Homo sapiens (human) SK-N-MC cells after 72 hr by MTT assay; type: functional, cell-based
Tubulin alpha 4a [1] = biological target: T1, Tubulin alpha 4a (Ovis aries, UniProt C5ISA2); assay: (§1) Inhibition of Ovis aries (sheep) brain tubulin polymerization assessed as microtubule assembly after 15 min by measuring turbidity based spectroscopic analysis
T1 sequence (C5ISA2 1-448): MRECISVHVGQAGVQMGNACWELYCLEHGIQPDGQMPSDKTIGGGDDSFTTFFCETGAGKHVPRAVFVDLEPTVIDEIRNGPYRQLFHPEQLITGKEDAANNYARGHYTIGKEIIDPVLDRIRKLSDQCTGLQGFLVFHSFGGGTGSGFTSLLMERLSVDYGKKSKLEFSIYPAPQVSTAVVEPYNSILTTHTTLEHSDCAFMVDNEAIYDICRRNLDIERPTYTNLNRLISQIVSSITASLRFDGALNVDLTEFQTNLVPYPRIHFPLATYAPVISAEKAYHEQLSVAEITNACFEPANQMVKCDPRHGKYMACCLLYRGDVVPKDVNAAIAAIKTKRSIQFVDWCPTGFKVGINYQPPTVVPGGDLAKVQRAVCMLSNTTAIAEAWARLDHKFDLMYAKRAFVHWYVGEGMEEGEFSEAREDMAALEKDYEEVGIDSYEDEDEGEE

K562 [2] = assay: Cytotoxicity against Homo sapiens (human) K562 cells after 72 hr by MTT assay; type: functional, cell-based; settings: K562, 72 h
K562 [3] = assay: Cytotoxicity against Homo sapiens (human) K562 cells; type: functional, cell-based
MCF7 = assay: Antiproliferative activity against Homo sapiens (human) MCF7 cells; type: functional, cell-based
HeLa = assay: Antiproliferative activity against Homo sapiens (human) HeLa cells; type: functional, cell-based
[4] = biological target: Tubulin alpha 4a (Ovis aries) (UniProt C5ISA2); assay: as §1
Sequence of Tubulin alpha 4a (Ovis aries) (C5ISA2 1-448): as above

[5] = biological target: Tubulin alpha 4a (Ovis aries) (UniProt C5ISA2); assay: Binding affinity to Ovis aries (sheep) brain tubulin assessed as increase in fluorescent intensity at 1:1 compound protein ratio after 30 min by fluorescence spectroscopic analysis
[6] = biological target: Tubulin alpha 4a (Ovis aries) (UniProt C5ISA2); assay: (§2) Inhibition of Ovis aries (sheep) brain tubulin polymerization assessed as microtubule assembly after 30 min by CD spectra analysis
Tubulin alpha 4a [7] = biological target: T1, Tubulin alpha 4a; assay: as §2
[8] = biological target: Tubulin alpha 4a (Ovis aries) (UniProt C5ISA2); assay: (§3) Binding affinity to Ovis aries (sheep) brain tubulin assessed as intrinsic tryptophan fluorescence after 30 min by fluorescence spectroscopic analysis; type: tissue-based
Tubulin alpha 4a [9] = biological target: T1, Tubulin alpha 4a; assay: as §3; type: tissue-based
[10] = biological target: Tubulin alpha 4a (Ovis aries) (UniProt C5ISA2); assay: Binding affinity to Ovis aries (sheep) brain tubulin assessed as […] at 25 to 50 uM after 30 min by far-UV CD spectrum analysis
[11] = biological target: Tubulin alpha 4a (Ovis aries) (UniProt C5ISA2); assay: Inhibition of Ovis aries (sheep) brain tubulin polymerization assessed as reduction of length of microtubule filament at 20 to 30 uM after 15 min by transmission electron microscopy analysis
[12] = biological target: Tubulin alpha 4a (Ovis aries) (UniProt C5ISA2); assay: Inhibition of Ovis aries (sheep) brain tubulin polymerization assessed as microtubule assembly at 30 uM after 30 min by CD spectra analysis

Structure (SMILES) | IC50 (Tubulin alpha 4a [1]) [µM] | IC50 (MCF7) [µM] | IC50 (HeLa) [µM] | inhibition [4] | Activity [5] | inhibition [6] | IC50 (Tubulin alpha 4a [7]) [µM] | Activity [8] | Kd (Tubulin alpha 4a [9]) [µM] | Activity [10] | inhibition [11] | inhibition [12] [%] | IC50 (SK-N-MC) [µM] | IC50 (K562 [2]) [µM] | IC50 (K562 [3]) [µM]
O=C(/C=C/c1ccc(Cl)cc1Cl)c1cc(Cl)ccc1O | > 50 |  |  |  |  |  |  |  |  |  |  |  | 69.8 | 65.6 | 
O=C(/C=C/c1cccc(Cl)c1)c1cc(Cl)ccc1O | 19.6 |  |  | Dose-dependent effect | Active | Dose-dependent effect | 19.6 | Dose-dependent effect | 3.7 | Active | Active | 89 | 47.8 | 41.1 | 

More lines, in order of falling IC50 (Tubulin alpha 4a [1]), values ahead:

IC50 (Tubulin alpha 4a [1]) [µM] | IC50 (MCF7) [µM] | IC50 (HeLa) [µM] | inhibition [4] | Activity [5] | inhibition [6] | IC50 (Tubulin alpha 4a [7]) [µM] | Activity [8] | Kd (Tubulin alpha 4a [9]) [µM] | Activity [10] | inhibition [11] | inhibition [12] [%] | Structure (SMILES) | IC50 (SK-N-MC) [µM] | IC50 (K562 [2]) [µM] | IC50 (K562 [3]) [µM]
49.3 |  |  |  |  |  |  |  |  |  |  |  | O=C(/C=C/c1ccccc1)c1ccccc1O [2'-HYDROXYCHALCONE] | 61.2 | 60.7 | 
26.6 | 12 | 13.8 |  |  |  |  |  |  |  |  |  | COc1cc(/C=C/C(=O)CC(=O)/C=C/c2ccc(O)c(OC)c2)ccc1O [CURCUMIN] | 57.4 | 49.2 | 54.3
21.4 |  |  | Dose-dependent effect |  |  |  |  |  |  |  |  | O=C(/C=C/c1ccccc1Cl)c1cc(Cl)ccc1O | 51.3 | 41.8 | 
20.3 |  |  | Dose-dependent effect |  |  |  |  |  |  |  |  | O=C(/C=C/c1ccc(Cl)cc1)c1cc(Cl)ccc1O | 45.8 | 38.7 | 
